Assay results reported in paper PMC7725003, “Systematically Studying the Optimal Amino Acid Distribution Patterns of the Amphiphilic Structure by Using the Ultrashort Amphiphiles” (Frontiers in Microbiology, 2020).
Where no end group is shown, it is not given here.

Tests used:
[1] = tested on: E. faecalis 29212; assay type: cell-based, Enterococcus faecalis; conditions: 29212, 24 h
Outline: (§1)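 Broth microdilution adapted from NCCLS. Peptide series in 0.2% BSA meets an equal volume of MHB culture at 0.5–1 × 10^6 CFU mL^–1; 24 h incubation at 37°C; MIC read as 95% growth inhibition at 492 nm.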

[2] = tested on: S. typhimurium 7731; assay type: cell-based, Salmonella typhimurium; conditions: 7731, 24 h
Outline: as §1

[3] = tested on: S. typhimurium 14028; assay type: cell-based, Salmonella typhimurium; conditions: 14028, 24 h
Outline: as §1

[4] = tested on: B. subtilis 63501; assay type: cell-based, Bacillus subtilis; conditions: 63501, 24 h
Outline: as §1

[5] = tested on: all of the tested bacterial strains; assay: Geometric mean of MICs, all tested bacterial strains; assay type: cell-based; conditions: for GM, All: geometric mean of MICs across all tested strains; for TI, All: therapeutic index TI = MHC/GM MIC
Outline: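 Mid-log bacteria at 0.5–1 × 10^6 CFU mL^–1 in MHB with peptides serially diluted in 0.2% BSA, 24 h at 37°C. MIC is the lowest concentration giving 95% growth inhibition by A492. MBC is the lowest giving >99.9% kill on agar subculture, and the GM is taken over all strains.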

[6] = tested on: MRSA 43300; assay type: cell-based, methicillin-resistant S. aureus; conditions: 43300, 24 h
Outline: as §1

[7] = tested on: S. epidermidis 12228; assay type: cell-based, Staphylococcus epidermidis; conditions: 12228, 24 h
Outline: as §1

[8] = tested on: E. coli O78; assay type: cell-based, Escherichia coli; conditions: O78, 24 h
Outline: as §1

[9] = tested on: E. coli 25922; assay type: cell-based, Escherichia coli; conditions: 25922, 24 h
Outline: as §1

[10] = tested on: E. coli UB1005; assay type: cell-based, Escherichia coli; conditions: UB1005, 24 h
Outline: as §1

[11] = tested on: S. pullorum 7913; assay type: cell-based, Salmonella pullorum; conditions: 7913, 24 h
Outline: as §1

[12] = tested on: Gram-positive bacteria; conditions: geometric mean of MBCs, 7 Gram-positive strains (Table 2)
[13] = tested on: P. aeruginosa 27853; assay type: cell-based, Pseudomonas aeruginosa; conditions: 27853, 24 h
Outline: as §1

[14] = tested on: Listeria monocytogenes CGMCC 1.1075; assay type: cell-based; conditions: CGMCC 1.1075, 24 h
Outline: as §1

[15] = tested on: E. coli K88; conditions: for MIC: MHB, 24 h 37°C, 95% growth inhibition; for MBC: value in brackets, >99.9% of cells killed
Outline: (§2)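 Peptides were serially diluted in 0.2% BSA and added to mid-logarithmic cells diluted in MHB to 0.5–1 × 10^6 CFU mL^–1. Assays followed an adapted NCCLS protocol.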

[16] = tested on: E. coli K99; conditions: for MIC: MHB, 24 h 37°C, 95% growth inhibition; for MBC: value in brackets, >99.9% of cells killed
Outline: as §2

[17] = tested on: S. aureus 25923; assay type: cell-based, Staphylococcus aureus; conditions: 25923, 24 h
Outline: as §1

[18] = tested on: S. aureus 29213; assay type: cell-based, Staphylococcus aureus; conditions: 29213, 24 h
Outline: as §1

[19] = tested on: Gram-negative bacteria; conditions: geometric mean of MBCs, 9 Gram-negative strains (Table 2)
[20] = tested on: Gram-positive bacteria; conditions: for GM MIC: geometric mean of MICs, 7 Gram-positive strains (Table 2); for TI, Gram-positive bacteria: therapeutic index TI = MHC/GM MIC
Outline: (§3)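 Broth microdilution adapted from NCCLS: mid-log bacteria diluted in MHB to 0.5–1 × 10^6 CFU mL^–1, mixed with peptides serially diluted in 0.2% BSA. After 24 h at 37°C, MIC taken as the lowest concentration inhibiting 95% of growth by absorbance at 492 nm. Assays repeated more than 3 times.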

[21] = tested on: Gram-negative bacteria; conditions: for GM MIC: geometric mean of MICs, 9 Gram-negative strains (Table 2); for TI, Gram-negative bacteria: therapeutic index TI = MHC/GM MIC
Outline: as §3

[22] = tested on: E. coli ATCC 25922; assay: Salt sensitivity assay (MIC); assay type: cell-based, Escherichia coli; conditions: for MIC, FeCl3: 4 μM FeCl3; for MIC, NH4Cl: 6 μM NH4Cl; for MIC, ZnCl2: 8 μM ZnCl2; for MIC, MgCl2: 1 mM MgCl2; for MIC, CaCl2: 2 mM CaCl2; for MIC, KCl: 4.5 mM KCl; for MIC, NaCl: 150 mM NaCl; for MIC, Control: no added salt, three independent assays
Outline: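 The salt sensitivity of peptides was tested against E. coli ATCC 25922 using a modified NCCLS broth microdilution MIC method. Mid-log bacteria were diluted in MHB to 0.5–1 × 10^6 CFU mL^–1 and mixed in equal volumes with peptides serially diluted in 0.2% BSA in 96-well plates. Physiological salt was added where specified, and the assay was done three independent times.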

[23] = tested on: S. aureus 29213; assay: Salt sensitivity assay (MIC); assay type: cell-based, Staphylococcus aureus; conditions: for MIC, FeCl3: 4 μM FeCl3; for MIC, NH4Cl: 6 μM NH4Cl; for MIC, ZnCl2: 8 μM ZnCl2; for MIC, MgCl2: 1 mM MgCl2; for MIC, CaCl2: 2 mM CaCl2; for MIC, KCl: 4.5 mM KCl; for MIC, NaCl: 150 mM NaCl; for MIC, Control: no added salt, three independent assays
Outline: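 MICs determined by broth microdilution in MHB with 0.5–1 × 10^6 CFU/mL, peptides serially diluted in 0.2% BSA, 24 h at 37°C. Medium supplemented with physiological salts (150 mM NaCl, 4.5 mM KCl, 6 μM NH4Cl, 8 μM ZnCl2, 1 mM MgCl2, 2mM CaCl2, 4 μM FeCl3). MIC = lowest concentration inhibiting 95% growth (A492).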

RLRLRRLLL-NH2 [L9]
MIC [1]: > 64 µM
MBC [2]: 128 µM
MIC [2]: 64 µM
MBC [3]: 128 µM
MIC [3]: 64 µM
MBC [4]: 16 µM
MIC [4]: 8 µM
GM, All [5]: 47.26 µM
TI, All [5]: 5.42
MIC [6]: >64 µM
MIC [7]: > 64 µM
MBC [8]: 64 µM
MIC [8]: 32 µM
MBC [9]: 32 µM
MIC [9]: 16 µM
MBC [10]: 128 µM
MIC [10]: 64 µM
MBC [11]: 64 µM
MIC [11]: 32 µM
GM MBC [12]: 78.02 µM
MIC [13]: > 64 µM
MBC [14]: 32 µM
MIC [14]: 16 µM
MIC [15]: 16 µM
MBC [15]: 32 µM
MIC [16]: 16 µM
MBC [16]: 32 µM
MIC [17]: > 64 µM
MIC [18]: >64 µM
GM MBC [19]: 69.12 µM
GM MIC [20]: 64.00 µM
TI, Gram-positive bacteria [20]: 4.00
GM MIC [21]: 37.33 µM
TI, Gram-negative bacteria [21]: 6.86
MIC, FeCl3 [22]: 16 µM
MIC, NH4Cl [22]: 32 µM
MIC, ZnCl2 [22]: 16 µM
MIC, MgCl2 [22]: 32 µM
MIC, CaCl2 [22]: > 64 µM
MIC, KCl [22]: 16 µM
MIC, NaCl [22]: > 64 µM
MIC, Control [22]: 16 µM
MIC, FeCl3 [23]: > 64 µM
MIC, NH4Cl [23]: > 64 µM
MIC, ZnCl2 [23]: > 64 µM
MIC, MgCl2 [23]: > 64 µM
MIC, CaCl2 [23]: > 64 µM
MIC, KCl [23]: > 64 µM
MIC, NaCl [23]: > 64 µM
MIC, Control [23]: > 64 µM

LRRRLLLLR-NH2 [L6]
MIC [1]: > 64 µM
MIC [2]: > 64 µM
MIC [3]: > 64 µM
MBC [4]: 64 µM
MIC [4]: 32 µM
GM, All [5]: 103.07 µM
TI, All [5]: 2.48
MIC [6]: >64 µM
MIC [7]: > 64 µM
MBC [8]: 128 µM
MIC [8]: 64 µM
MIC [9]: > 64 µM
MIC [10]: >64 µM
MIC [11]: >64 µM
GM MBC [12]: 115.93 µM
MIC [13]: > 64 µM
MIC [14]: >64 µM
MIC [15]: 64 µM
MBC [15]: 128 µM
MIC [16]: 64 µM
MBC [16]: 128 µM
MIC [17]: > 64 µM
MIC [18]: >64 µM
GM MBC [19]: 128.00 µM
GM MIC [20]: 105.00 µM
TI, Gram-positive bacteria [20]: 2.44
GM MIC [21]: 101.59 µM
TI, Gram-negative bacteria [21]: 2.52
MIC, FeCl3 [22]: > 64 µM
MIC, NH4Cl [22]: > 64 µM
MIC, ZnCl2 [22]: > 64 µM
MIC, MgCl2 [22]: > 64 µM
MIC, CaCl2 [22]: > 64 µM
MIC, KCl [22]: > 64 µM
MIC, NaCl [22]: > 64 µM
MIC, Control [22]: > 64 µM
MIC, FeCl3 [23]: > 64 µM
MIC, NH4Cl [23]: > 64 µM
MIC, ZnCl2 [23]: > 64 µM
MIC, MgCl2 [23]: > 64 µM
MIC, CaCl2 [23]: > 64 µM
MIC, KCl [23]: > 64 µM
MIC, NaCl [23]: > 64 µM
MIC, Control [23]: > 64 µM
